Literature values, collected in US20050085485A1, “Orally dispersible pharmaceutical piribedil composition” (priority 2002, published 2005).

Conditions: humans

## c1cnc(N2CCN(Cc3ccc4c(c3)OCO4)CC2)nc1 [piribedil, Piribedil]
Currently marketed prolonged-release form, 50 mg dose
  period over which therapeutic levels are spread out: more than 24 hours
Oral route in relation to the parenteral route
  bioavailability by the oral route: low
